Twelve compounds from ChEMBL document CHEMBL3046395, “Synthesis and pharmacological investigation of novel 3-(benzyl)-2-substituted amino-3H-quinazolin-4-ones as analgesic and anti-inflammatory agents” (Med Chem Res, 2008) can be followed below.

Usually inhibition in vivo stands for the share of the control response that was lost under treatment.

The test system of data set [1] is Rattus norvegicus. The data set can be described thus: Anti-inflammatory activity in Rattus norvegicus (rat) assessed as inhibition of carrageenan-induced paw edema at 20 mg/kg, po measured at 30 min post carrageenan-challenge (reference value: 5.1 +/- 0.29%). To be noted: 0.5 h. It counts as functional. (In general: Carrageenan injected into the paw causes an acute inflammation.)

Data set [2] deals with Rattus norvegicus. The data set can be described thus: Anti-inflammatory activity in Rattus norvegicus (rat) assessed as inhibition of carrageenan-induced paw edema at 10 mg/kg, po measured at 30 min post carrageenan-challenge (reference value: 5.1 +/- 0.29%). It counts as functional. As to conditions: 0.5 h.
The test system of data set [3] is Mus musculus. The data set is described as follows: Analgesic activity in Mus musculus Wistar albino (mouse) at 20 mg/kg, po after 3 hr by tail-flick test (reference value: 4 +/- 0.91%). It counts as functional. (In general: Hot-plate and tail-flick tests time the reaction to a heat stimulus.)
The subject of data set [4] is Mus musculus. The data set can be described thus: Analgesic activity in Mus musculus Wistar albino (mouse) at 10 mg/kg, po after 3 hr by tail-flick test (reference value: 4 +/- 0.91%). It counts as functional.
For data set [5], the system named is Mus musculus. The data set can be described thus: Analgesic activity in Mus musculus Wistar albino (mouse) at 20 mg/kg, po after 2 hr by tail-flick test (reference value: 4 +/- 0.59%). It counts as functional.
Data set [6] relates to Mus musculus. The data set can be described thus: Analgesic activity in Mus musculus Wistar albino (mouse) at 10 mg/kg, po after 2 hr by tail-flick test (reference value: 4 +/- 0.59%). It counts as functional.
Data set [7] deals with Mus musculus. The data set can be described thus: Analgesic activity in Mus musculus Wistar albino (mouse) at 20 mg/kg, po after 1 hr by tail-flick test (reference value: 6 +/- 0.49%). It counts as functional.
The subject of data set [8] is Mus musculus. The data set is described as follows: Analgesic activity in Mus musculus Wistar albino (mouse) at 10 mg/kg, po after 1 hr by tail-flick test (reference value: 6 +/- 0.49%). It counts as functional.
The subject of data set [9] is Mus musculus. The data set is described as follows: Analgesic activity in Mus musculus Wistar albino (mouse) at 20 mg/kg, po after 30 min by tail-flick test (reference value: 2 +/- 0.35%). It counts as functional.
Data set [10] relates to Mus musculus. The data set can be described thus: Analgesic activity in Mus musculus Wistar albino (mouse) at 10 mg/kg, po after 30 min by tail-flick test (reference value: 2 +/- 0.35%). It counts as functional.
In data set [11] the test system is Rattus norvegicus. The data set is described as follows: Gastrointestinal toxicity in Rattus norvegicus Wistar albino (rat) assessed as ulcer index at 20 mg/kg, ip administered QD for 3 days measured on day 4 (reference value: 0.15 +/- 0.32). It counts as organism-based. Set-up: dose 20 mg/kg, route intraperitoneal. To be noted: in vivo, 72 h.
The subject of data set [12] is Rattus norvegicus. The data set is described as follows: Anti-inflammatory activity in Rattus norvegicus (rat) assessed as inhibition of carrageenan-induced paw edema at 20 mg/kg, po measured at 3 hr post carrageenan-challenge (reference value: 3.2 +/- 0.93%). It counts as functional.
The subject of data set [13] is Rattus norvegicus. The data set can be described thus: Anti-inflammatory activity in Rattus norvegicus (rat) assessed as inhibition of carrageenan-induced paw edema at 10 mg/kg, po measured at 3 hr post carrageenan-challenge (reference value: 3.2 +/- 0.93%). It counts as functional.
Data set [14] deals with Rattus norvegicus. The data set can be described thus: Anti-inflammatory activity in Rattus norvegicus (rat) assessed as inhibition of carrageenan-induced paw edema at 20 mg/kg, po measured at 2 hr post carrageenan-challenge (reference value: 5.7+/- 0.32%). It counts as functional.
In data set [15] the test system is Rattus norvegicus. The data set is described as follows: Anti-inflammatory activity in Rattus norvegicus (rat) assessed as inhibition of carrageenan-induced paw edema at 10 mg/kg, po measured at 2 hr post carrageenan-challenge (reference value: 5.7+/- 0.32%). It counts as functional.
In data set [16] the test system is Rattus norvegicus. The data set can be described thus: Anti-inflammatory activity in Rattus norvegicus (rat) assessed as inhibition of carrageenan-induced paw edema at 20 mg/kg, po measured at 1 hr post carrageenan-challenge (reference value: 6.1 +/- 0.27%). It counts as functional.
For data set [17], the system named is Rattus norvegicus. The data set is described as follows: Anti-inflammatory activity in Rattus norvegicus (rat) assessed as inhibition of carrageenan-induced paw edema at 10 mg/kg, po measured at 1 hr post carrageenan-challenge (reference value: 6.1 +/- 0.27%). It counts as functional.

`O=c1c2ccccc2nc(N/N=C/c2ccccc2[N+](=O)[O-])n1Cc1ccccc1`: the inhibition in vivo at 20 mg/kg in [1] worked out at 43%; in [12], 28%; in [14], 47%; in [16], 43%. For the same compound, the inhibition in vivo at 10 mg/kg was 30% in data set [2], 21% in [13], 38% in [15] and 36% in data set [17]. The Activity in data set [3] amounted to 38%; in data set [4], 32%; in data set [5], 57%; in data set [6] it was 46%; in data set [7], 56%; in [8] it was 44%. Besides, the Activity in data set [9] came to 49%; in data set [10], 37%. Besides, in data set [11], the UI amounted to 0.87.
In the case of `O=c1c2ccccc2nc(N/N=C/c2ccc([N+](=O)[O-])cc2)n1Cc1ccccc1`, the inhibition in vivo at 20 mg/kg in [1] came out at 42%; in data set [12] it was 31%; in [14] it was 49%; in data set [16], 45%. The inhibition in vivo at 10 mg/kg in data set [2] amounted to 31%; in data set [13], 24%; in data set [15], 37%; in data set [17] it was 31%. Further, the Activity in data set [3] was 39%; in data set [4], 34%; in data set [5], 54%; in data set [6], 42%; in [7] it was 48%; in data set [8] it was 42%. Further, the Activity was 46% in data set [9] and 38% in [10]. For the same compound, in data set [11], the UI stood at 0.82.
Consider `COc1ccc(/C=N/Nc2nc3ccccc3c(=O)n2Cc2ccccc2)cc1`, for which the inhibition in vivo at 20 mg/kg in data set [1] was determined as 35%; in data set [12], 30%; in data set [14], 44%; in data set [16] it was 40%. The inhibition in vivo at 10 mg/kg in [2] was determined as 28%; in data set [13] it was 25%; in data set [15], 37%; in [17], 30%. The Activity is 37% in data set [3]; 32% in data set [4]; 56% in data set [5]; 44% in [6]; 52% in data set [7]; 40% in data set [8]. In addition, the Activity in [9] was 49%; in [10], 39%. The UI in data set [11] was determined as 0.83.
In the case of `Cc1ccccc1/C=N/Nc1nc2ccccc2c(=O)n1Cc1ccccc1`, the inhibition in vivo at 20 mg/kg in data set [1] came out at 45%; in [12], 36%; in data set [14], 51%; in data set [16], 47%. Moreover, the inhibition in vivo at 10 mg/kg in data set [2] came out at 39%; in data set [13], 28%; in data set [15], 45%; in [17], 42%. The Activity turned out to be 39% in data set [3]; 32% in [4]; 59% in data set [5]; 48% in [6]; 58% in data set [7]; 48% in data set [8]. The figures for the Activity in data set [9] and in data set [10] were 52% and 44%, respectively. Also, the UI in [11] amounted to 0.66.
`Cc1ccc(/C=N/Nc2nc3ccccc3c(=O)n2Cc2ccccc2)cc1`: the inhibition in vivo at 20 mg/kg in data set [1] is 46%; in data set [12], 38%; in data set [14] it was 53%; in data set [16], 49%. The inhibition in vivo at 10 mg/kg in data set [2] turned out to be 38%; in [13], 29%; in [15], 42%; in [17] it was 38%. Further, the Activity turned out to be 40% in data set [3]; 35% in [4]; 61% in data set [5]; 54% in data set [6]; 59% in data set [7]; 49% in [8]. Moreover, the Activity is listed as 58% in [9] and 47% in data set [10]. Moreover, in [11], the UI was 0.65.
For the compound `O=c1c2ccccc2nc(NN=C(c2ccccc2)c2ccccc2)n1Cc1ccccc1`, the inhibition in vivo at 20 mg/kg in data set [1] was 47%; in data set [12] it was 35%; in data set [14] it was 52%; in [16], 50%. In addition, the inhibition in vivo at 10 mg/kg worked out at 36% in data set [2], 27% in [13], 43% in data set [15] and 41% in data set [17]. Also, the Activity was 41% in data set [3]; 33% in data set [4]; 59% in data set [5]; 49% in data set [6]; 58% in data set [7]; 49% in [8]. Further, the Activity in data set [9] turned out to be 55%; in data set [10], 46%. Moreover, the UI in [11] was 0.63.
Take `CCN(CC)C(=S)Nn1c(-c2ccccc2)nc2ccccc2c1=O`: the Activity is on record as 58% in data set [5] and 44% in data set [6]. Moreover, the inhibition in vivo at 20 mg/kg in [14] worked out at 53%. Besides, in data set [15], the inhibition in vivo at 10 mg/kg was determined as 38%.
Consider `Cc1nc2ccccc2c(=O)n1NC(=S)n1cccc1`, for which the Activity is reported as 65% in data set [5] and 50% in data set [6]. Besides, in data set [14], the inhibition in vivo at 20 mg/kg is 60%. The inhibition in vivo at 10 mg/kg in data set [15] was found to be 44%.
Take `CCN(CC)C(=S)Nn1c(SC)nc2ccccc2c1=O`: the figures for the Activity in [5] and in data set [6] were 67% and 56%, respectively. In addition, the inhibition in vivo at 20 mg/kg in data set [14] came to 62%. Moreover, the inhibition in vivo at 10 mg/kg in data set [15] is 40%.
Regarding `O=c1c2ccccc2nc(N/N=C/c2ccccc2Cl)n1Cc1ccccc1`, the inhibition in vivo at 20 mg/kg in [1] was 38%; in data set [12] it was 31%; in [14], 42%; in data set [16], 38%. In addition, the inhibition in vivo at 10 mg/kg in [2] came to 30%; in data set [13], 26%; in data set [15], 35%; in [17], 32%. In addition, the Activity is listed as 35% in [3]; 29% in data set [4]; 53% in data set [5]; 41% in data set [6]; 49% in [7]; 37% in data set [8]. In addition, the Activity in data set [9] turned out to be 46%; in data set [10], 34%. The UI in data set [11] was 0.86.
As for `O=c1c2ccccc2nc(N/N=C/c2ccc(Cl)cc2)n1Cc1ccccc1`, the inhibition in vivo at 20 mg/kg in [1] is 40%; in data set [12] it was 29%; in [14] it was 49%; in data set [16] it was 44%. The inhibition in vivo at 10 mg/kg in [2] was determined as 34%; in data set [13], 23%; in [15], 36%; in data set [17], 36%. Besides, the Activity in [3] worked out at 36%; in data set [4] it was 30%; in data set [5], 54%; in data set [6], 47%; in [7], 51%; in [8], 36%. The Activity in data set [9] is 49%; in [10] it was 38%. Moreover, in [11], the UI came to 0.89.
As for `CC(=O)Oc1ccccc1C(=O)O` [ASPIRIN], the UI in data set [11] came to 1.73.
